Experimental data published in the NIST ThermoML archive (doi:10.1016/j.jct.2013.10.007).
Numbers after ± are expanded uncertainties.

What was measured:
[1] = Crystal; DTA
[2] = Molar enthalpy of transition or fusion; settings: Crystal; DSC

Normal melting temperature [1]: 72.89 ± 0.53 °C | Molar enthalpy of transition or fusion [2]: 27.7 ± 8.6 kcal/mol
SMILES: CCCCCCCCCCCCCCCCCC(=O)OCC(COC(=O)CCCCCCCCCCCCCCCCC)OC(=O)CCCCCCCCCCCCCCCCC [glycerol trioctadecanoate]
